Laboratory results: patent publication US8283481B2, “Inhibitors of a 9-cis epoxycarotenoid dioxygenase” (National Research Council of Canada, priority 2008, dated 2012)
“Also recorded” adds a separate entry of the source. Blank lines part the entries; values can stand above or below the compound they belong to.

Legend:
recombinant AtNCED3 = target: T1, recombinant AtNCED3 (Arabidopsis thaliana, UniProt Q9LRR7); test: Recombinant AtNCED3 in vitro enzyme assay (HPLC, cleavage of 9-cis-neoxanthin); assay type: biochemical; settings: for relative inhibition of AtNCED3 activity (in words): in vitro enzyme assay, 1 mM concentration (FIG. 5); for Ki: Dixon plot, competitive inhibition, 0-250 μM inhibitor, 9-cis-neoxanthin at 50 (55), 30 and 10 μM
T1 construct: glutathione-S-transferase (GST) (C); made in house; host or cells: E. coli BL21(DE3), pRL296 vector
T1 sequence (Q9LRR7 41-599): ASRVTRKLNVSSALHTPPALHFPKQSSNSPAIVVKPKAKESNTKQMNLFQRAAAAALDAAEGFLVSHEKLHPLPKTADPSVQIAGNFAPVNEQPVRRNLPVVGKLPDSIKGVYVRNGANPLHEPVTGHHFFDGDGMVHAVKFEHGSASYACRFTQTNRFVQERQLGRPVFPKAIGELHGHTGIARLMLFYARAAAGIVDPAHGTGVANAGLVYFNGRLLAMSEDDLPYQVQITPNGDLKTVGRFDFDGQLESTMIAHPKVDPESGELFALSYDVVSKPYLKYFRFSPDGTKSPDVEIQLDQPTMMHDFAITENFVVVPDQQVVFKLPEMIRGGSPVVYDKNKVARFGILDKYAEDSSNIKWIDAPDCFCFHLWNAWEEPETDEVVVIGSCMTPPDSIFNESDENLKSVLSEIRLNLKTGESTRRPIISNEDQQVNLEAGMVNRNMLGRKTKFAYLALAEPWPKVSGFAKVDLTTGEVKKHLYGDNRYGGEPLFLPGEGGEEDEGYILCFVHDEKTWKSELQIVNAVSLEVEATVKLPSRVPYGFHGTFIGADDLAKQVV
From the text: Fresh spinach was macerated under liquid nitrogen and extracted five times with three volumes of methanol/0.1% KOH. Samples were dried using a roto-evaporator, resuspended in acetone and then chilled on ice for one hour. The solvent was subsequently transferred to a new flask, roto-evaporated and resuspended in acetonitrile/acetone (1:1) mixture. The mixture was applied to a gravity flow column containing C-18 silica gel (Sigma) equilibrated in 65% acetonitrile/35% water (solvent C). The column was washed with 49% acetone (solvent D)/51% solvent A and 20 mL of 55% solvent D/45% solvent A while collecting 5 mL fractions. Fractions containing neoxanthin were pooled, dried, and resuspended in 100 μL of methanol. The pooled mixture was separated using an Agilent 1100 series HPLC and a Supelcosil™ LC-18 (25 cm×10 mm, 5 m) (Supelco) column equilibrated with solvent A. The HPLC method consisted of a linear gradient over 30 minutes from 100% solvent A to 100% solvent D with a flow rate of 4 mL/minute at 22° C. and monitored with a PDA detector at 436 nm. The neoxanthin fractions were collected, dried and resuspended in ethanol. Neoxanthin was quantified by determining its OD439 using a PerkinElmer Lambda 35 UV/VIS Spectrometer and applying its extinction coefficient of 2243 (A^1%1cm).^30
AtNCED3 was over-expressed using the pRL296 expression vector (a gift from M. Cygler, BRI, Montreal) in E. coli (BL21)DE3 cells as a glutathione-S-transferase fusion protein and affinity purified using glutathione sepharose 4 fast flow resin (GE Healthcare) as described previously.^35 Essentially, cells were grown to an OD600 of 0.45 at 37° C. and 200 rpm shaking. The culture was induced with 1 mM isopropyl-β-d-thiogalactoside for 16 h at 15° C. and 200 rpm shaking. The cells were pelleted and resuspended in 50 mM Tris-HCl (pH 8.0) 1 mM DTT and 0.5% protease inhibitor cocktail set III (CalBiochem). Cells were lysed using a french press at 20,000 psi and affinity purified as per manufacturer's instructions (GE Healthcare). Protein concentration was determined by the method of Bradford.^36
Enzymatic assays contained 100 mM Bis-Tris (pH 6.7), […], 10 mM ascorbate, 0.05% Triton™ X-100, catalase (1 mg/mL), neoxanthin and inhibitor to a total volume of 5 L of ethanol and 8 g AtNCED3 to a total assay volume of 100 L. Assays were incubated at 22° C. for 20 min. The assays were stopped with the addition of 50 L of 25% Triton™ X-100 and extracted with 150 L of ethyl acetate. All procedures were performed under red-light to minimize photo-induced damage to assay components and products.^6 Fine chemicals and solvents were purchased from Sigma-Aldrich. 75 μL of the assay extract was injected into an Agilent 1100 series HPLC machine equipped with a Supelcosil™ LC-18 (3.3 cm×4.6 mm, 3 m) (Supelco) column pre-equilibrated with 15% acetonitrile (solvent B)/85% water (solvent A). Solvent B increased to 35% over ten minutes, followed by a linear gradient of 65% solvent B to 100% solvent D over 10 minutes. Solvent D was maintained at 100% for 2 minutes and then the column was returned to 15% solvent B for 5 min. The flow rate was maintained at 1.5 mL/min. and monitored with a photodiode array (PDA) detector at 436 and 262 nm.
Evaluation of recombinant AtNCED3 kinetic parameters for Km was accomplished using Michaelis-Menten equation plotted with EnzFitter™ v2.0.18.0 (Biosoft). The Ki for inhibitors was determined using a Dixon plot and concentration ranges of 250, 200, 150, 100, 50 and 0 μM inhibitor in the presence of either 55, 30 or 10 μM 9-cis-neoxanthin 2.^5

[1] = system: Arabidopsis thaliana Col-0 seeds; test: Seed germination assay; assay type: in vivo
Protocol: Arabidopsis thaliana Col-0 seeds were sterilized by washing them with 10% sodium hypochlorite and 20% sodium dodecyl sulfate (Sigma) for five minutes and then rinsing four times with sterile water. Seeds were moist chilled for 4 days and then plated on germination medium (0.41% MS salts, 1% sucrose, 0.05% MES and 0.1% Gamborg's vitamins, pH 5.7, 0.7% agar) (Sigma) containing either 0.1, 0.33, 1.0 or 3.33 μM of inhibitor or (+)-ABA 1. As a control, seeds were sewn and germinated on media only without inhibitors or (+)-ABA 1. Germination was recorded over seven days and indexes calculated as described previously.^40

[2] = system: ABA and catabolites in Arabidopsis thaliana Col-0 plants; test: Total ABA metabolite levels in mannitol stressed plants treated with SLCCD inhibitors; assay type: in vivo; settings: 33 μM inhibitor, mannitol stress, first 6 hours
Protocol: For each condition to be tested, three hundred wild-type Arabidopsis thaliana Col-0 seeds (LEHLE) were sterilized, vernalized and sewn onto 200 mL of Sunshine Mix #3 (Sun Gro) potting material in an 8×8×4 cm pot. Plants were watered continuously with 25 g/100 mL of 20-20-20 (PlantProd™) fertilizer and grown at 22° C. with a 16 hour photoperiod for 22 days. Plants were pre-treated with 50 mL/pot of Buffer A (10 mM HEPES pH 6.5) (Sigma)+/−10 or 33 μM test compound for 2 hours. Plants were then soaked with 50 mL/pot of Buffer A containing 0.4 M mannitol (Sigma)+/−10 or 33 μM test compound. Non-treated/non-stressed control plants were simply soaked in Buffer A at the designated time points. […] Half of the tissue samples were lyophilized for metabolite profiling and the other half taken for quantitative reverse-transcription polymerase chain reaction (qRT-PCR) analysis.
Freeze-dried tissue was homogenized using a multi-tube ball mill (Mini-BeadBeater-96™, Biospec Products Inc., Bartlesville, Okla., USA) and 50 mg of each sample was weighed out into individual Falcon tubes. To each sample, 100 μL of a cocktail of internal standards comprised of (−)-5,8′,8′,8′-d4-ABA, (−)-7′,7′,7′-d3-PA, (−)-5,8′,8′,8′-d4-7′OH ABA, (−)-7′,7′,7′-d3-DPA and (+)-4,5,8′,8′,8′-d5-ABAGE, each at a concentration of 0.2 ng/μL and dissolved in a mixture of water:acetonitrile (1:1, v/v) with 0.5% glacial acetic acid, was added. Further, 3 mL of isopropanol:water:glacial acetic acid (80:19:1, v/v/v) extraction solvent was added, and samples were placed in the fridge (4° C., in the dark) on an orbital shaker at about 350 rpm. After 18-24 hours, the samples were centrifuged at 4.4 krpm for 10 min, the supernatant was transferred to a disposable culture tube, and a second portion of 500 μL extraction solvent mixture was added to wash the pellet. After vortexing and centrifuging again at 4.4 krpm for 10 min, each wash was combined with its appropriate supernatant. The organic extract was dried under reduced pressure, then re-dissolved in 100 μL methanol:glacial acetic acid (99:1, v/v) followed by 900 μL of aqueous 1% glacial acetic acid. This mixture was extracted with 2 mL hexane, and then the aqueous layer was dried down under reduced pressure. The sample was further reconstituted in 2 mL aqueous 1% glacial acetic acid and loaded onto an Oasis MCX SPE cartridge (3 cc, Waters Corporation, Mississauga, Ontario, Canada). After a wash with 3 mL aqueous 1% glacial acetic acid, samples were eluted with 1 mL methanol:glacial acetic acid (99:1, v/v) and then dried down under reduced pressure. The extract was re-dissolved in 100 μL methanol:glacial acetic acid (99:1, v/v) followed by 900 μL of aqueous 1% glacial acetic acid. This mixture was further cleaned on an Oasis HLB SPE cartridge (1 cc, Waters Corporation, Mississauga, Ontario, Canada). After a wash with 1 mL aqueous 1% glacial acetic acid, the fraction containing ABA and ABA metabolites was eluted with 1 mL acetonitrile:water:glacial acetic acid (30:69:1, v/v/v) and then was evaporated to dryness. The final residue was dissolved in 200 μL of acetonitrile:water (15:85, v/v) containing 0.1% glacial acetic acid and 100 pg/μL (±)-3′,5′,5′,7′,7′,7′-d6-ABA as a recovery standard. Finally, the sample was subjected to LC-ES-MS/MS analysis and quantification, as described in Owen and Abrams, 2008.^39

cowpea NCED enzyme = settings: background, references 17, 18; read-out: Ki, competitive inhibition of cowpea NCED enzyme; cited from earlier work
[3] = system: ABA metabolite accumulation; settings: background, references 17, 18; cited from earlier work

Compound: CC1=CC(=O)CC(C)(C)C1(O)/C=C/C(C)=C\C(=O)O (single isomer, unassigned; (+)) [(+)-ABA 1, Abscisic acid, reference compound]
reduction of seed germination ([1]; 0.33 μM in germination medium): 47% | reduction of seed germination ([1]; 1 μM in germination medium): 61% | reduction of seed germination ([1]; highest concentration tested (3.33 μM)): 96%

Compound: CCSC/C=C(/C)C#C[C@]1(O)[C@H](C)CC(=O)CC1(C)C [Compound 11, (4S,5R)-(3′Z)-4-(5′-(Ethylthio)-3′-methylpent-3′-en-1′-ynyl)-4-hydroxy-3,3,5-trimethylcyclohexanone]
relative inhibition of AtNCED3 activity (in words) (recombinant AtNCED3): reduced activity

Compound: CCSC/C=C(/C)C#C[C@@]1(O)[C@@H](C)CC(=O)CC1(C)C [Compound 12, (4R,5S)-(3′Z)-4-(5′-(Ethylthio)-3′-methylpent-3′-en-1′-ynyl)-4-hydroxy-3,3,5-trimethylcyclohexanone]
relative inhibition of AtNCED3 activity (in words) (recombinant AtNCED3): completely inhibited; also recorded: inhibited the enzyme as strongly as the more xanthoxin-like compounds

Compound: CCSC/C=C(/C)C#C[C@]1(O)[C@H](C)C[C@@H](O)CC1(C)C [Compound 14, (1S,4R,6R)-(3′Z)-1-(5′-(Ethylthio)-3′-methylpent-3′-en-1′-ynyl)-2,2,6-trimethylcyclohexane-1,4-diol]
relative inhibition of AtNCED3 activity (in words) (recombinant AtNCED3): did not afford greater activity

Continued, in another order:

Km (recombinant AtNCED3; cleavage of 9-cis-neoxanthin 2 by recombinant AtNCED3, Michaelis-Menten plot): 24 µM
Compound: CC(=C/C=C/C(C)=C/C=C/C=C(C)/C=C/C=C(\C)C=C=C1C(C)(C)C[C@H](O)C[C@@]1(C)O)/C=C/[C@@]12O[C@]1(C)C[C@@H](O)CC2(C)C (relative stereo) [compound 2, 9-cis-Neoxanthin, reference compound]

relative inhibition of AtNCED3 activity (in words) (recombinant AtNCED3): did not afford greater activity
Compound: CCSC/C=C(/C)C#C[C@@]1(O)[C@H](C)C[C@@H](O)CC1(C)C [Compound 15, (1R,4R,6R)-(3′Z)-1-(5′-(Ethylthio)-3′-methylpent-3′-en-1′-ynyl)-2,2,6-trimethylcyclohexane-1,4-diol]

Ki (recombinant AtNCED3): 132 µM
Compound: COC(=O)CN(C/C=C/c1ccc(OC)c(OC)c1)Cc1ccc(F)cc1 [compound 9, Abamine, reference compound]
levels of ABA and catabolites at first time point (in words) [2]: higher levels of ABA and catabolites at the first time point | Ki (cowpea NCED enzyme): 18.5 µM | reduction of ABA metabolite accumulation [3]: 35%

Ki (recombinant AtNCED3): 86 µM
Compound: Abamine SG [compound 10]
Ki (cowpea NCED enzyme): 38.8 µM | reduction of ABA metabolite accumulation [3]: 77%
